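Growth conditions: 96-well plates. Treatment: test compound, 48 hours, 5 concentrations. Analysis: linear interpolation between bracketing concentrations; unreached endpoints set to highest concentration. Definition used: TGI = concentration required for complete inhibition of growth.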
Key:
Experiment in all cases: NCI anticancer screen, dose series, 48 h
786-0 renal = test system: 786-0 renal
A498 renal = test system: A498 renal
A549 NSCLC = test system: A549 NSCLC
ACHN renal = test system: ACHN renal
BT-549 breast = test system: BT-549 breast
CCRF-CEM leukemia = test system: CCRF-CEM leukemia
COLO 205 colon = test system: COLO 205 colon
DU-145 prostate = test system: DU-145 prostate
EKVX NSCLC = test system: EKVX NSCLC
HCC-2998 colon = test system: HCC-2998 colon
HCT-116 colon = test system: HCT-116 colon
HCT-15 colon = test system: HCT-15 colon
HL-60(TB) leukemia = test system: HL-60(TB) leukemia
HOP-62 NSCLC = test system: HOP-62 NSCLC
HOP-92 NSCLC = test system: HOP-92 NSCLC
HS 578T breast = test system: HS 578T breast
HT29 colon = test system: HT29 colon
K-562 leukemia = test system: K-562 leukemia
KM12 colon = test system: KM12 colon
LOX IMVI melanoma = test system: LOX IMVI melanoma
M14 melanoma = test system: M14 melanoma
MCF7 breast = test system: MCF7 breast
MDA-MB-231 breast = test system: MDA-MB-231 breast
MDA-MB-435 = test system: MDA-MB-435
MDA-N = test system: MDA-N
MOLT-4 leukemia = test system: MOLT-4 leukemia
NCI-H226 lung = test system: NCI-H226 lung
NCI-H23 lung = test system: NCI-H23 lung
NCI-H460 lung = test system: NCI-H460 lung
NCI-H522 lung = test system: NCI-H522 lung
NCI/ADR-RES ovarian = test system: NCI/ADR-RES ovarian
OVCAR-3 ovarian = test system: OVCAR-3 ovarian
OVCAR-5 ovarian = test system: OVCAR-5 ovarian
OVCAR-8 ovarian = test system: OVCAR-8 ovarian
PC-3 prostate = test system: PC-3 prostate
RPMI-8226 leukemia = test system: RPMI-8226 leukemia
SF-268 CNS = test system: SF-268 CNS
SF-295 CNS = test system: SF-295 CNS
SF-539 CNS = test system: SF-539 CNS
SK-MEL-2 melanoma = test system: SK-MEL-2 melanoma
SK-MEL-28 melanoma = test system: SK-MEL-28 melanoma
SN12C renal = test system: SN12C renal
SNB-19 CNS = test system: SNB-19 CNS
SNB-75 CNS = test system: SNB-75 CNS
SR leukemia = test system: SR leukemia
SW-620 colon = test system: SW-620 colon
T-47D breast = test system: T-47D breast
TK-10 renal = test system: TK-10 renal
U251 CNS = test system: U251 CNS
UACC-257 melanoma = test system: UACC-257 melanoma
UO-31 renal = test system: UO-31 renal
CAKI-1 renal = test system: CAKI-1 renal
IGROV1 ovarian = test system: IGROV1 ovarian
MALME-3M melanoma = test system: MALME-3M melanoma
OVCAR-4 ovarian = test system: OVCAR-4 ovarian
SK-MEL-5 melanoma = test system: SK-MEL-5 melanoma
SK-OV-3 ovarian = test system: SK-OV-3 ovarian
UACC-62 melanoma = test system: UACC-62 melanoma

Measured: TGI

CCOP(=O)(OCC)/C(C#N)=C/c1nccn1C
> 100 µM: 786-0 renal | A498 renal | A549 NSCLC | ACHN renal | BT-549 breast | CCRF-CEM leukemia | COLO 205 colon | DU-145 prostate | EKVX NSCLC | HCC-2998 colon | HCT-116 colon | HCT-15 colon | HL-60(TB) leukemia | HOP-62 NSCLC | HOP-92 NSCLC | HS 578T breast | HT29 colon | K-562 leukemia | KM12 colon | LOX IMVI melanoma | M14 melanoma | MCF7 breast | MDA-MB-231 breast | MDA-MB-435 | MDA-N | MOLT-4 leukemia | NCI-H226 lung | NCI-H23 lung | NCI-H460 lung | NCI-H522 lung | NCI/ADR-RES ovarian | OVCAR-3 ovarian | OVCAR-5 ovarian | OVCAR-8 ovarian | PC-3 prostate | RPMI-8226 leukemia | SF-268 CNS | SF-295 CNS | SF-539 CNS | SK-MEL-2 melanoma | SK-MEL-28 melanoma | SN12C renal | SNB-19 CNS | SNB-75 CNS | SR leukemia | SW-620 colon | T-47D breast | TK-10 renal | U251 CNS | UACC-257 melanoma | UO-31 renal

OC(Cc1ccc2ccccc2n1)(C(F)(F)F)C(F)(F)F
> 10 µM: 786-0 renal | A498 renal | A549 NSCLC | ACHN renal | BT-549 breast | CAKI-1 renal | CCRF-CEM leukemia | COLO 205 colon | DU-145 prostate | EKVX NSCLC | HCC-2998 colon | HCT-116 colon | HCT-15 colon | HOP-62 NSCLC | HOP-92 NSCLC | HS 578T breast | HT29 colon | IGROV1 ovarian | K-562 leukemia | KM12 colon | LOX IMVI melanoma | M14 melanoma | MALME-3M melanoma | MCF7 breast | MDA-MB-231 breast | MDA-MB-435 | MDA-N | MOLT-4 leukemia | NCI-H23 lung | NCI-H460 lung | NCI-H522 lung | NCI/ADR-RES ovarian | OVCAR-3 ovarian | OVCAR-4 ovarian | OVCAR-5 ovarian | OVCAR-8 ovarian | PC-3 prostate | RPMI-8226 leukemia | SF-268 CNS | SF-295 CNS | SF-539 CNS | SK-MEL-28 melanoma | SK-MEL-5 melanoma | SK-OV-3 ovarian | SN12C renal | SNB-19 CNS | SNB-75 CNS | SR leukemia | SW-620 colon | T-47D breast | TK-10 renal | U251 CNS | UACC-257 melanoma | UACC-62 melanoma | UO-31 renal

Clc1ccc(Cc2nc3cc(Cl)ccc3o2)cc1
35.4 µM: SK-MEL-2 melanoma
80.9 µM: EKVX NSCLC
53.2 µM: HCC-2998 colon
71.8 µM: SF-295 CNS
97 µM: NCI-H522 lung
97.9 µM: T-47D breast
> 100 µM: 786-0 renal | A549 NSCLC | ACHN renal | BT-549 breast | CAKI-1 renal | DU-145 prostate | HCT-116 colon | HCT-15 colon | HL-60(TB) leukemia | HOP-62 NSCLC | HOP-92 NSCLC | HS 578T breast | HT29 colon | IGROV1 ovarian | K-562 leukemia | KM12 colon | LOX IMVI melanoma | M14 melanoma | MALME-3M melanoma | MCF7 breast | MDA-MB-231 breast | MDA-N | MOLT-4 leukemia | NCI-H226 lung | NCI-H23 lung | NCI-H460 lung | NCI/ADR-RES ovarian | OVCAR-4 ovarian | OVCAR-5 ovarian | OVCAR-8 ovarian | PC-3 prostate | RPMI-8226 leukemia | SF-268 CNS | SF-539 CNS | SK-MEL-28 melanoma | SN12C renal | SNB-19 CNS | SR leukemia | SW-620 colon | TK-10 renal | UACC-62 melanoma | UO-31 renal
91.2 µM: U251 CNS
92.3 µM: CCRF-CEM leukemia
92.2 µM: UACC-257 melanoma
68.7 µM: SK-OV-3 ovarian
70.9 µM: OVCAR-3 ovarian
95.6 µM: MDA-MB-435
33.1 µM: SK-MEL-5 melanoma
87.4 µM: COLO 205 colon

CC(CO)(CO)N1C(=O)C2C3c4ccccc4C(c4ccccc43)C2C1=O (stereo not drawn)
> 100 µM: 786-0 renal | A498 renal | A549 NSCLC | ACHN renal | BT-549 breast | CAKI-1 renal | CCRF-CEM leukemia | COLO 205 colon | DU-145 prostate | HCC-2998 colon | HCT-116 colon | HCT-15 colon | HL-60(TB) leukemia | HOP-62 NSCLC | HS 578T breast | HT29 colon | IGROV1 ovarian | K-562 leukemia | KM12 colon | M14 melanoma | MALME-3M melanoma | MCF7 breast | MDA-MB-231 breast | MDA-MB-435 | MDA-N | MOLT-4 leukemia | NCI-H226 lung | NCI-H23 lung | NCI-H460 lung | NCI-H522 lung | NCI/ADR-RES ovarian | OVCAR-3 ovarian | OVCAR-5 ovarian | OVCAR-8 ovarian | PC-3 prostate | SF-268 CNS | SF-295 CNS | SF-539 CNS | SK-MEL-2 melanoma | SK-MEL-28 melanoma | SK-MEL-5 melanoma | SK-OV-3 ovarian | SN12C renal | SNB-19 CNS | SNB-75 CNS | SR leukemia | SW-620 colon | T-47D breast | TK-10 renal | U251 CNS | UACC-257 melanoma | UACC-62 melanoma | UO-31 renal

O=C(Nc1ccc(Cl)cc1)/C(=C(/[O-])c1ccc(Br)cc1)[n+]1cccc(-c2ccc(Cl)cc2)n1
9.65 µM: HS 578T breast
9.86 µM: KM12 colon
14.2 µM: OVCAR-8 ovarian
6.66 µM: CAKI-1 renal
12.3 µM: SK-MEL-2 melanoma
67.8 µM: TK-10 renal
46.1 µM: ACHN renal
31.6 µM: NCI/ADR-RES ovarian
18.5 µM: M14 melanoma
29.4 µM: OVCAR-4 ovarian
9.04 µM: NCI-H23 lung
25 µM: MDA-MB-435
71.1 µM: SK-MEL-28 melanoma
14.3 µM: 786-0 renal
3.28 µM: MCF7 breast
11.3 µM: MALME-3M melanoma
33.7 µM: SK-OV-3 ovarian
29.2 µM: HOP-62 NSCLC
> 100 µM: A498 renal | A549 NSCLC | COLO 205 colon | DU-145 prostate | HOP-92 NSCLC | K-562 leukemia | LOX IMVI melanoma | MDA-MB-231 breast | MDA-N | MOLT-4 leukemia | PC-3 prostate | RPMI-8226 leukemia | SK-MEL-5 melanoma | SNB-19 CNS | SR leukemia | SW-620 colon | U251 CNS | UACC-257 melanoma
13 µM: HCT-116 colon
26.1 µM: SNB-75 CNS
12.9 µM: OVCAR-3 ovarian
22.8 µM: UACC-62 melanoma
21.7 µM: OVCAR-5 ovarian
24 µM: HCC-2998 colon
51.7 µM: HCT-15 colon
19.3 µM: EKVX NSCLC
14.8 µM: IGROV1 ovarian
6.83 µM: NCI-H522 lung
42.6 µM: UO-31 renal
9.35 µM: BT-549 breast
5.14 µM: T-47D breast
19.5 µM: SF-268 CNS
8.44 µM: SN12C renal
11.2 µM: SF-295 CNS
16.5 µM: NCI-H460 lung

Source: PubChem BioAssay (NCI)
